{"source": "patent US6355655B1", "about": "“Heterocyclic sulphonamide derivatives” (Eli Lilly and Company, priority 1998, dated 2002)", "target": "T1, human GluR4B receptor (Homo sapiens, UniProt P48058)", "T1 construct": "expressed in transfected cells", "T1 sequence (P48058 21-902)": "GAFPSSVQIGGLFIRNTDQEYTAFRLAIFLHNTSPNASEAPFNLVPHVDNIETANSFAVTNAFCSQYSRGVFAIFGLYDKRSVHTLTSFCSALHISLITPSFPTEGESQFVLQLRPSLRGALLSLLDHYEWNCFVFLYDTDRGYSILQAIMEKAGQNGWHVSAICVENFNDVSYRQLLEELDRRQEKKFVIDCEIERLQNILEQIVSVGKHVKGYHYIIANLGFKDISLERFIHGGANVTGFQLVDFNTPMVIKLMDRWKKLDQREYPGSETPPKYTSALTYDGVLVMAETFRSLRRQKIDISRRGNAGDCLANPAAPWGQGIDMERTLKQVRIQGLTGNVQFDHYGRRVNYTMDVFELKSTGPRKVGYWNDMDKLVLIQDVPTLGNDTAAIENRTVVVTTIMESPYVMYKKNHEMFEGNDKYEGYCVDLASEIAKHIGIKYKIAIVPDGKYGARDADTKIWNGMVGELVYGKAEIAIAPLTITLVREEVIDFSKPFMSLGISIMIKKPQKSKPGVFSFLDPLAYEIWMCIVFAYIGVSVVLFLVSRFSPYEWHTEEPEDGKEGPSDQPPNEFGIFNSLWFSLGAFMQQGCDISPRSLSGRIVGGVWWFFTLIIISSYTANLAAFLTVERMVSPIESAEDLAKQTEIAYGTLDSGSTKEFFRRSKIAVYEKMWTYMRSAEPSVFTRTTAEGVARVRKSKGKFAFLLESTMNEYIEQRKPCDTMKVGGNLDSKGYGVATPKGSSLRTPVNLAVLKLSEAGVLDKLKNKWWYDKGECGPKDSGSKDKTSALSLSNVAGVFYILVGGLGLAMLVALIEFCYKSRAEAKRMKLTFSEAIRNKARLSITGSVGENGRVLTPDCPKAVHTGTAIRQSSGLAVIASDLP", "experiment": "Potentiation of agonist-induced excitability of human GluR4B receptor expressed in HEK 293 cells", "type": "cell-based", "text": "The ability of compounds of formula I to potentiate glutamate receptor-mediated response may be determined using fluorescent calcium indicator dyes (Molecular Probes, Eugene, Oreg., Fluo-3) and by measuring glutamate-evoked efflux of calcium into GluR4 transfected HEK293 cells, as described in more detail below.\nIn one test, 96 well plates containing confluent monolayers of HEK cells stably expressing human GluR4B (obtained as described in European Patent Application Publication Number EP-A1-583917) are prepared. The tissue culture medium in the wells is then discarded, and the wells are each washed once with 200 μl of buffer (glucose, 10 mM, sodium chloride, 138 mM, magnesium chloride, 1 mM, potassium chloride, 5 mM, calcium chloride, 5 mM, N-[2-hydroxyethyl]-piperazine-N-[2-ethanesulfonic acid], 10 mM, to pH 7.1 to 7.3). […]\nEach test is then performed as follows. […] A second fluorescent reading is taken after 5 minutes incubation. 15 μl of 400 μM glutamate solution is then added to each well (final glutamate concentration 100 μM), and a third reading is taken. The activities of test compounds and cyclothiazide solutions are determined by subtracting the second from the third reading (fluorescence due to addition of glutamate in the presence or absence of test compound or cyclothiazide) and are expressed relative to enhance fluorescence produced by 100 μM cyclothiazide."}
{"smiles": "NS(=O)(=O)c1cc2c(cc1Cl)NC(C1CC3C=CC1C3)NS2(=O)=O", "note": "(stereo not shown) [cyclothiazide]", "values": [{"measurement": "potentiation of agonist-induced excitability", "value": "potentiate agonist-induced excitability"}]}
